Measured values reported in patent US20050282757A1, “Peptide boronic acid compounds useful in anticoagulation” (Trigen Limited, priority 2002, published 2005).

Experiments:
thrombin time and APTT = test: Intravenous administration in beagle dogs, PK/PD (Example 36); type: in vivo; conditions: 1.0 mg/kg i.v.; for thrombin time at pharmacodynamic C max: 2 minutes post dose, base line 14.3 seconds, monosodium salt
Procedure: Blood samples were taken into 3.8% tri-sodium citrate (1+8) at pre dose, 2, 5, 10, 20, 30, minutes post dose and then at 1, 2, 3, 4, 6, 8, 12 and 24 hours post dose. Plasma was prepared by centrifugation and frozen at minus 20° C. pending analysis.

[1] = test system: dynamic coagulation markers; test: Simulated mitral valve repair on hypothermic CPB in dogs (Example 48); type: in vivo, beagle dogs; conditions: intravenous
Procedure: Following a dose ranging study in conscious dogs, six beagle dogs were placed on CPB and underwent a simulated mitral valve repair. A range of dynamic coagulation markers were measured, including thrombin clotting time (TT), activated partial thromboplastin time (APTT), activated clotting time (ACT), ecarin clotting time (ECT), whole blood thrombin clotting time, platelet counts and function tests. In addition, pre and post-operative echocardiograms and intra-operative blood loss were evaluated. […] By virtue of its predictable anticoagulant efficacy and controlled duration of action, TGN 255 offers potential in on pump and off pump coronary bypass procedures.

[2] = Solubility of TRI 50c monosodium salt at different pH values; type: physicochemical
Procedure: It may be desirable to make aqueous solutions of boronic acid drugs for administering them. […] However, a solution with a pH of 9.5 may be unacceptable or undesirable. Accordingly, a pharmaceutically acceptable organic acid may be included in the particulate formulation in an amount selected to reduce the pH to a value at which the solution is more acceptable but at which a solution of drinkable quantity (e.g. about 50 ml to about 150 ml) may be formed by reconstituting the particulate formulation. As the organic acid may be mentioned citric acid, tartaric acid or malic acid, for example. In many instances, citric acid is chosen.
In a first series of experiments, this amount of the salt was dissolved in 50 ml water to form a solution of approximately pH 9.5. Dilute aqueous HCl was added to determine how much the pH could be reduced before precipitation occurred.
In a second series of experiments, the same amount of the salt was dissolved in 150 ml water, and citric acid was added. […] Since acid solutions tend to be more palatable than alkaline ones, and citric acid is a common flavouring agent, this behaviour of the salt is highly beneficial. […] In general, it is contemplated that the boronate will be formulated to form a reconstituted solution having a pH of from 4 to 8, e.g. 4 to 7, optionally 5 to 6.

[3] = Stability assay before and after drying, HPLC-PDA (Example 34); type: physicochemical; conditions: for Amount: 5 mg in 5 mL
Procedure: An assay of TRI 50c and its sodium and lysine salts before and after drying.
For sample analysis, 5 mg of dried and non-dried material was weighed in a 5 mL volumetric flask and dissolved in 1 mL acetonitrile and filled up with demineralised water to 5 mL.
The quantitative evaluation was performed using an HPLC-PDA method.

thrombin time (TT) = test: Intravenous administration into humans (Examples 40 and 46); type: in vivo
Procedure: The test consisted of three groups, each of six males. From each group 5 men were given the active ingredient and 1 was given a placebo.
Total I.V. administered doses were: • 82 mg (7 mg intravenous bolus (over 30s) followed by an infusion of 25 mg/h for 3 hours). • 130 mg (10 mg intravenous bolus (over 30s) followed by an infusion of 40 mg/h for 3 hours). • 120 mg (by infusion of 40 mg/h for 3 hours). […] Within 30 minutes after cessation of infusion there was a fall to a level at which clinically significant anticoagulation is not expected.

[4] = Excretion of administered dose; conditions: in vivo
Description: It will be appreciated that such short duration of action (rapid offset of activity) achieved by a boronic acid is well suited for the prevention of thrombosis in intermittent apheresis procedures, and that oral administration is particularly useful in the case of elective intermittent apheresis procedures. In one class of embodiments, the apheresis procedure is haemodialysis (strictly CIHD); in another, the procedure is not haemodialysis.

[5] = Comparative storage stability of sodium and calcium salts (Example 49); type: physicochemical; conditions: for Tri50c (w/w %, LOD corr.): corrected for loss on drying
Description: In both studies the active pharmaceutical ingredient was stored in grip sealed double bags within a PE/PP screw cap closed cylinder.

Plasmin = Plasmin (Homo sapiens, UniProt P00747); test: Plasmin inhibition, Method B (Example 52); type: biochemical; conditions: Plasmin relative to Thrombin
Sequence of Plasmin (P00747 581-810 limits assumed, species assumed): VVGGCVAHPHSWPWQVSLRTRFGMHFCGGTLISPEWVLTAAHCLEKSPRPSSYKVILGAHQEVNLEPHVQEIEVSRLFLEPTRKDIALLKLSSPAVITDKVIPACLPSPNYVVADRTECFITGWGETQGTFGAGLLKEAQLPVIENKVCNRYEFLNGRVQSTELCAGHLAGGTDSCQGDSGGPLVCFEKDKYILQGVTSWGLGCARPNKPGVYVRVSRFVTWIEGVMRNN
Sequence of Plasmin (P00747 97-580 limits assumed, species assumed): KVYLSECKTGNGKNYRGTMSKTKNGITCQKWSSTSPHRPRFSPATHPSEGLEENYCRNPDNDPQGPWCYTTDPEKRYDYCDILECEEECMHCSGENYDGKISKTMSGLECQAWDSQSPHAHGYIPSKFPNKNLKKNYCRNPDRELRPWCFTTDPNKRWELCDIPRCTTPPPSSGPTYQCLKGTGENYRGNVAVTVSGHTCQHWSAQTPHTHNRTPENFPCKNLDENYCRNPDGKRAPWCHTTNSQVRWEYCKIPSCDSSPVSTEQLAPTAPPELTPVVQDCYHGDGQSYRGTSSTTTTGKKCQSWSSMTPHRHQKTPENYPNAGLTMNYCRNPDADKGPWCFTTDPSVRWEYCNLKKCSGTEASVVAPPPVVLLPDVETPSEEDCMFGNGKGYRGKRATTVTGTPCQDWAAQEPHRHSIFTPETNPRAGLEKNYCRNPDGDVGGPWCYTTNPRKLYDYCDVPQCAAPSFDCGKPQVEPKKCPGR
Procedure: 50 μl Plasmin (75 ng/ml in assay buffer) and 20 μl vehicle or compound solution were added to 110 μl assay buffer (100 mM Na orthophosphate (80% Na2HPO4 and 20% NaH2PO4), 200 mM NaCl, 0.5% PEG 6000, 0.02% Na azide, pH 7.5) and incubated for 5 minutes at 37° C.

[6] = dry (1 week in desiccator over phosphorus pentoxide)

SMILES: COCCC[C@H](NC(=O)[C@@H]1CCCN1C(=O)[C@@H](Cc1ccccc1)NC(=O)OCc1ccccc1)B(O)O.[Na+] [TRI 50c monosodium salt, Cbz-(R)-Phe-(S)-Pro-(R)-Mpg-B(OH)2 monosodium salt]
- thrombin time at pharmacodynamic C max (thrombin time and APTT; listed as TRI 50c sodium salt): 154 s
- thrombin time at pharmacodynamic C max (thrombin time and APTT): 154.4 s
- Thrombin time (thrombin time and APTT; one hour post dose): 26 s
- elevation in the APTT (thrombin time and APTT; post dose): 1.3 times
- tolerance (thrombin time and APTT; total duration of the study): tolerated well with no adverse events
- Thrombin clotting time elevation above base line (thrombin time and APTT; two minutes following dosing): 10.8 times
- APTT post dose (thrombin time and APTT; from 19 seconds): 25 s
- anticoagulation during bypass and surgery [1]: excellent anticoagulation during bypass and surgery with little bleeding
- concentration of boronate salt solution that can be formed ([2]; pH of about 9.5): up to 600 mg/ml
- pH below which the salt tended to precipitate ([2]; salt equivalent to 600 mg TRI 50c in 50 ml water, dilute aqueous HCl added): below 9
- pH reached before precipitation occurred ([2]; salt equivalent to 600 mg TRI 50c in 150 ml water, citric acid added): 3.7-3.8
- Purity [3, 6]: 98.81 % area
- Amount [3, 6]: 1024 µg/mL
- Purity ([3]; non-dried): 98.61 % area
- Amount ([3]; non-dried): 1005.8 µg/mL
- time for plasma concentrations of the active principle to return to tolerably low levels (thrombin time (TT); after termination of intravenous administration): ≤ 30 min
- time after cessation of infusion to fall to a level at which clinically significant anticoagulation is not expected (thrombin time (TT); i.v. infusion): ≤ 30 min
- distribution phase, time after the end of infusion (thrombin time (TT); i.v. infusion for 3 hours): ≤ 30 min
- effect on thrombin time (TT) (thrombin time (TT); intravenous infusion): rapid, dose-related increase in the thrombin time (TT)
- overall terminal elimination half life (thrombin time (TT); plasma, i.v.): about 4 hours
- safety assessments (thrombin time (TT); single i.v. doses 82, 130, 120 mg): No clinically significant findings
- adverse clinical events (thrombin time (TT); study period of 24 hours, any dose): no adverse clinical events of either a general or cardiovascular nature
- administered dose excreted as TRI 50c species (acid and corresponding boronate species) [4]: 14%
- Appearance ([5]; T = 0): Powdery
- Color ([5]; T = 0): White
- Tri50c (w/w %) ([5]; T = 0): 101.1 w/w %
- Tri50c (w/w %, LOD corr.) ([5]; T = 0): 101.5 w/w %
- Appearance ([5]; T = 1, 25° C./60% r.h.): powdery
- Color ([5]; T = 1, 25° C./60% r.h.): white
- Tri50c (w/w %) ([5]; T = 1, 25° C./60% r.h.): 99.5 w/w %
- Tri50c (w/w %, LOD corr.) ([5]; T = 1, 25° C./60% r.h.): 103.6 w/w %
- Appearance ([5]; T = 1, 40° C./75% r.h.): powdery
- Color ([5]; T = 1, 40° C./75% r.h.): white
- Tri50c (w/w %) ([5]; T = 1, 40° C./75% r.h.): 90.3 w/w %
- Tri50c (w/w %, LOD corr.) ([5]; T = 1, 40° C./75% r.h.): 94.5 w/w %
- Appearance ([5]; T = 1, −20° C.): powdery
- Color ([5]; T = 1, −20° C.): white
- Tri50c (w/w %) ([5]; T = 1, −20° C.): 103.1 w/w %
- Tri50c (w/w %, LOD corr.) ([5]; T = 1, −20° C.): 104.3 w/w %
- Appearance ([5]; T = 3, 25° C./60% r.h.): powdery
- Color ([5]; T = 3, 25° C./60% r.h.): white
- Tri50c (w/w %) ([5]; T = 3, 25° C./60% r.h.): 95.3 w/w %
- Tri50c (w/w %, LOD corr.) ([5]; T = 3, 25° C./60% r.h.): 100.4 w/w %
- Appearance ([5]; T = 3, 40° C./75% r.h.): viscous
- Color ([5]; T = 3, 40° C./75% r.h.): brown
- Tri50c (w/w %) ([5]; T = 3, 40° C./75% r.h.): 48.6 w/w %
- Tri50c (w/w %, LOD corr.) ([5]; T = 3, 40° C./75% r.h.): 52.2 w/w %
- Appearance ([5]; T = 3, −20° C.): powdery
- Color ([5]; T = 3, −20° C.): white
- Tri50c (w/w %) ([5]; T = 3, −20° C.): 102.5 w/w %
- Tri50c (w/w %) ([5]; T = 12, 25° C./60% r.h.): 70.5 w/w %
- Tri50c (w/w %, LOD corr.) ([5]; T = 12, 25° C./60% r.h.): 71.2 w/w %

SMILES: COCCC[C@H](NC(=O)[C@@H]1CCCN1C(=O)[C@@H](Cc1ccc(F)cc1)NC(=O)OCc1ccccc1)B([O-])O.[Na+] [TRI 50f]
- Selectivity (Plasmin): >1000
